Literature values in US11534424B2, “Compounds and methods for treatment of primary biliary cholangitis” (Arena Pharmaceuticals, Inc., priority 2017, dated 2022).

How the values were obtained:
[1] = chronic administration
[2] = system: experimental autoimmune encephalomyelitis (EAE); conditions: murine EAE, relative to vehicle
[3] = system: collagen induced arthritis (CIA); conditions: CIA rats

| liver enzyme elevation [1] | SMILES | further results |
| --- | --- | --- |
| liver enzyme elevation has been seen | CC(C)Oc1ncc(-c2nc(-c3cccc4c3ccn4CCCC(=O)O)no2)cc1Cl [GSK2018682] |  |
| liver enzyme elevation has been seen | CCc1cc(/C(C)=N/OCc2ccc(C3CCCCC3)c(C(F)(F)F)c2)ccc1CN1CC(C(=O)O)C1 [siponimod] |  |
| liver enzyme elevation has been seen | CC(C)Oc1ccc(-c2nc(-c3cccc4c3CC[C@@H]4NCCO)no2)cc1C#N [ozanimod] |  |

Further lines, the compound ahead of its results:

| SMILES | liver enzyme elevation [1] | further results |
| --- | --- | --- |
| O=C(O)C[C@H]1CCc2c1[nH]c1ccc(OCc3ccc(C4CCCC4)c(C(F)(F)F)c3)cc21 [Compound 1, (R)-2-(7-(4-cyclopentyl-3-(trifluoromethyl)benzyloxy)-1,2,3,4-tetrahydrocyclopenta[b]indol-3-yl)acetic acid] |  | disease course, therapeutic administration ([2]; administered day 18 to day 37, similar to fingolimod): reverse the disease relative to vehicle; onset and severity of disease, prophylactic administration ([2]; up to day 25): prevented the onset and severity of disease relative to vehicle up to day 25; histological parameters in the knees and ankles [3]: Improvement in histological parameters |
| CCCCCCCCc1ccc(CCC(N)(CO)CO)cc1 [fingolimod] | liver enzyme elevation has been seen |  |
| CCC/N=C1\S/C(=C\c2ccc(OC[C@H](O)CO)c(Cl)c2)C(=O)N1c1ccccc1C [ponesimod] | liver enzyme elevation has been seen |  |
